According to US20160318892A1, “PRODRUG COMPOUNDS” (PROXIMAGEN LIMITED, priority 2013, published 2016):
Converted amounts (≈) assume the structure as drawn. Where two headings read alike, the source gives them in different places. One block for each compound: values may come before it.

Legend:
[1] = Solubility in aqueous solutions; type: physicochemical; conditions: aqueous solution
Description: In an embodiment prodrugs of the present invention are suitable for oral administration. The skilled person understands that the pH of the gastrointestinal tract changes along its length. For example, the stomach has a pH of around pH 1.5 and the GI tract after the stomach has a pH of around 5 to 7.5. For more detail see, for example, Measurement of gastrointestinal pH profiles in normal ambulant human subjects, Gut. 1988 August; 29(8): 1035-1041. Improved solubility is expected to result in improved absorption, and therefore improved oral bioavailability. Thus improved solubility at any pH value between around pH 1.5 to 8 is expected to improve oral bioavailability. Compounds of the invention were assessed for solubility in aqueous solutions having a pH of from 2 to 10. In an embodiment prodrugs of the invention have a solubility of >0.5 mg/mL in an aqueous solution having a pH of from 2 to 8. In an embodiment prodrugs have a solubility of >5.0 mg/mL, or >10.0 mg/mL, >100.0 mg/mL, or >200.0 mg/mL. In an embodiment the prodrugs have the aforementioned aqueous solubility at a pH within the range of from 4 to 8, or from 6 to 8.
In an embodiment prodrugs of the invention are administered intravenously. High prodrug solubility is advantageous in order to reduce the volume of solution administered to the patient, and to reduce the risk of damage to the circulatory system. Solubility of >10 mg/mL is preferred. Yet more preferred is solubility of >30 mg/mL or >100.0 mg/mL. Yet more preferred is solubility of >200.0 mg/mL. The solubility is measured in an aqueous solution having a pH of from 2 to 10, which pH range is advantageous for intravenous prodrug delivery. See, for example, A guide on intravenous drug compatibilities based on their pH, Nasser S C et al./Pharmacie Globale (IJCP) 2010, 5 (01)). In an embodiment the prodrugs of the claimed invention have solubility of >10 mg/mL in an aqueous solution having a pH of from 2 to 10.

high K+ evoked CSD [2] = conditions: cats; cited from earlier work
high K+ evoked CSD [3] = conditions: rats; cited from earlier work
[4] = test system: unique stereo-selective site in rat brain; conditions: cited from earlier work
[5] = test system: unique stereo-selective site in human brain; conditions: cited from earlier work

Structure (SMILES): CC(=O)c1ccc2c(c1)[C@H](NC(=O)c1ccc(F)c(Cl)c1)[C@H](O)C(C)(C)O2 [Tonabersat]
inhibition of high K+ evoked CSD (high K+ evoked CSD [2]): inhibits
inhibition of high K+ evoked CSD (high K+ evoked CSD [3]): inhibits
binding affinity to unique stereo-selective site [4]: high affinity
binding affinity to unique stereo-selective site [5]: high affinity

Structure (SMILES): CC(=O)c1ccc2c(c1)[C@H](NC(=O)c1ccc(F)cc1)[C@@H](OC(=O)[C@@H](N)C(C)C)C(C)(C)O2.Cl [Example 3, (3R,4S)-6-Acetyl-4-[(4-fluorobenzene)amido]-2,2-dimethyl-3,4-dihydro-2H-1-benzopyran-3-yl (2S)-2-amino-3-methylbutanoate hydrochloride]
solubility ([1]; pH 3.6, aqueous buffer): < 1 mg/mL

Structure (SMILES): CC(=O)c1ccc2c(c1)[C@H](NC(=O)c1ccc(F)cc1)[C@@H](OC(=O)OCCN1CCOCC1)C(C)(C)O2.Cl [Example 8, (3R,4S)-6-Acetyl-4-[(4-fluorobenzene)amido]-2,2-dimethyl-3,4-dihydro-2H-1-benzopyran-3-yl 2-(morpholin-4-yl)ethyl carbonate hydrochloride]
solubility ([1]; aqueous buffer, pH 4.0): ~10 mg/mL

Structure (SMILES): CC(=O)c1ccc2c(c1)[C@H](NC(=O)c1ccc(F)cc1)[C@@H](OCOP(=O)([O-])O)C(C)(C)O2.[Na+] [Example 2, Sodium {[(3R,4S)-6-Acetyl-4-[(4-fluorobenzene)amido]-2,2-dimethyl-3,4-dihydro-2H-1-benzopyran-3-yl]oxy}methyl hydrogen phosphate]
solubility ([1]; aqueous buffer, pH 4.0): > 10 mg/mL

Structure (SMILES): CC(=O)c1ccc2c(c1)[C@H](NC(=O)c1ccc(F)cc1)[C@@H](OC(=O)CNC(=O)[C@@H]1CCCN1)C(C)(C)O2.Cl [Example 6, (3R,4S)-6-Acetyl-4-[(4-fluorobenzene)amido]-2,2-dimethyl-3,4-dihydro-2H-1-benzopyran-3-yl 2-[(2S)-pyrrolidin-2-ylformamido]acetate hydrochloride]
solubility ([1]; pH 6.1, aqueous buffer): > 10 mg/mL

The remaining lines, values ahead:

solubility ([1]; pH 5.1, aqueous buffer): > 5 mg/mL
Structure (SMILES): CC(=O)c1ccc2c(c1)[C@H](NC(=O)c1ccc(F)cc1)[C@@H](OC(=O)CN)C(C)(C)O2.Cl [Example 5, (3R,4S)-6-Acetyl-4-[(4-fluorobenzene)amido]-2,2-dimethyl-3,4-dihydro-2H-1-benzopyran-3-yl 2-aminoacetate hydrochloride]

solubility ([1]; aqueous buffer, pH 7.0): ~10 mg/mL (≈ 22.9 mM)
Structure (SMILES): CC(=O)c1ccc2c(c1)[C@H](NC(=O)c1ccc(F)cc1)[C@@H](OP(=O)(O)O)C(C)(C)O2 [Example 1, {[(3R,4S)-6-Acetyl-4-[(4-fluorobenzene)amido]-2,2-dimethyl-3,4-dihydro-2H-1-benzopyran-3-yl]oxy}phosphonic acid]

solubility ([1]; pH 3.5, aqueous buffer): < 1 mg/mL
Structure (SMILES): CC(=O)c1ccc2c(c1)[C@H](NC(=O)c1ccc(F)cc1)[C@@H](OC(=O)CNC(C)C)C(C)(C)O2.Cl [Example 7, (3R,4S)-6-Acetyl-4-[(4-fluorobenzene)amido]-2,2-dimethyl-3,4-dihydro-2H-1-benzopyran-3-yl 2-[(propan-2-yl)amino]acetate hydrochloride]

solubility ([1]; pH 4.2, aqueous buffer): > 10 mg/mL
Structure (SMILES): CC(=O)c1ccc2c(c1)[C@H](NC(=O)c1ccc(F)cc1)[C@@H](OC(=O)[C@@H](NC(=O)[C@@H](N)C(C)C)C(C)C)C(C)(C)O2.Cl [Example 4, (3R,4S)-6-Acetyl-4-[(4-fluorobenzene)amido]-2,2-dimethyl-3,4-dihydro-2H-1-benzopyran-3-yl (2S)-2-[(2S)-2-amino-3-methylbutanamido]-3-methylbutanoate hydrochloride]
